Assay results: publication PMC10050424, “Structural basis of the substrate recognition and inhibition mechanism of Plasmodium falciparum nucleoside transporter PfENT1” (Nature Communications, 2023)
Values joined by “and” are separate entries in the source; they are usually repeats but may differ in a detail not shown here. Equal values may be shown once.

Experiments:
PfENT1 = target: T1, PfENT1 (Plasmodium falciparum, UniProt Q8IDM6); experiment: cell-based; assay type: cell-based; conditions: uptake without competitor set as 100%, Fig. 1c; for remaining activity at 5000 µM: 0.5 h, read-out: Uptake of [3H]-inosine (Percentage of PfENT1 WT), competition by nonradioactive nucleoside/nucleobase 5 mM, 30 min, 30 °C; for Uptake of [3H]-inosine (Percentage of PfENT1 WT): competition by nonradioactive nucleoside/nucleobase 5 mM, 30 min, 30 °C
T1 construct: expressed in transfected cells; host or cells: S. cerevisiae BY4741, FUI1 deleted, PfENT1 knock-in under the TEF1 promoter
Procedure: The S. cerevisiae strain (ATCC, #201388) BY4741 (MATa his3Δ1 leu2Δ0 met15Δ0 ura3Δ0) was used as the starting yeast strain. Yeast strains were cultured in YPD medium (20 g/L peptone, 10 g/L yeast extract, and 20 g/L dextrose). The antibiotic G418 was supplemented at a concentration of 250 μg/mL to select strains carrying the KanMX marker. E. coli DH5α was used for subcloning.
Codon-optimized PfENT1 (for expression in yeast) was synthesized by Sangon Biotech. The carboxyl terminus of PfENT1 was HA-tagged through PCR. The TEF1p promoter and PGK1t terminator were amplified from BY4741 genomic DNA. Overlap PCR was applied to generate the gene overexpression cassette of PfENT1 (TEF1p promoter-PfENT1-PGK1t terminator). The two 600-bp homologous arms corresponding to the upstream and downstream regions of the FUI1 gene were amplified from BY4741 genomic DNA. The gene cassette of the ‘TEF1p promoter-PfENT1-PGK1t terminator’ together with the two homologous arms was cloned into the PUC19 plasmid through Gibson assembly, generating the final plasmid PUC19: PfENT1. PfENT1 mutations were generated using point mutation and verified by Sanger sequencing. The spacer targeting the FUI1 gene (5ʹ-[…]-3ʹ) was cloned into the pCas-BsaI plasmid to generate the pCas-FUI1 plasmid as described previously.
To obtain fui1Δ and PfENT1 (or its mutations) overexpression in the S. cerevisiae strain, 1 μg pCas-FUI1 plasmid and 15 μg PUC19:PfENT1 were transformed into yeast using the LiAc/ssDNA/PEG method. Then, the strains were plated on a YPD plate supplemented with G418. Clones were screened using PCR and finally verified through Sanger sequencing.
Cells were grown overnight in YPD medium to mid-log phase and harvested by centrifugation at 3000 × g for 5 min. Cells were washed three times in 2% glucose. The yeast pellets were resuspended in uptake assay buffer (25 mM Tris-HCl 8.0,150 mM NaCl, 2% glucose) to a final concentration of 2 × 10^8 cells mL^–1. The uptake assay was initiated by combining 100 μL of prewarmed (30 °C) cells and 100 μL uptake assay buffer mixture: 25 mM Tris-HCl 8.0, 150 mM NaCl, 2% glucose, 200 nM [^3H] Inosine ([8-^3H] inosine; 20 Ci mmol^–1, American Radiolabeled Chemicals). Cells were removed onto a membrane filter at the appropriate times to generate the time course. After washing by vacuum filtration with 2 ml ice-cold 2% glucose, the radioactivity retained on the filter was incubated with 1 mL of ULTIMA GOLD scintillation fluid (Perkin Elmer, 77-15311). Counts were measured using a liquid scintillation analyzer (Perkin Elmer, Tri-Carb 5110TR).
For competition assays, the indicated nucleosides and nucleobase were added into the external uptake assay buffer (25 mM Tris-HCl 8.0, 150 mM NaCl, and 2% glucose) to a final concentration of 5 mM, and the transport reaction was stopped at 30 min. The reading of the competition assays was normalized against the one without a competitor, which had the uptake of radiolabeled inosine set as 100%. All uptake assays were performed at 30 °C and repeated three times. Error bars represent the s.d. The final result was analyzed in the GraphPad Prism 8 software ([…]).

PfENT1WT = target: T2, PfENT1WT (Plasmodium falciparum, UniProt Q8IDM6); experiment: biochemical; assay type: binding
T2 construct: 10xHis (N); made in house; host or cells: Sf9 insect cells (baculovirus)
Procedure: For the in vitro binding assay, Sf9 cells were solubilized in lysis buffer containing 2% (w/v) n-dodecyl-β-D-maltopyranoside (DDM, Anatrace) and protease inhibitor cocktail (0.8 μM aprotinin, 2 μM pepstatin, and 5 μg/ml leupeptin) at 4 °C for 2 h. The soluble supernatant was collected via centrifugation and incubated with Ni-NTA resin (QIAGEN) at 4 °C for 1 h. The resin was washed and eluted using lysis buffer containing 0.05% (w/v) DDM and 30 mM/300 mM imidazole. The protein was further purified by size-exclusion chromatography (Superdex 200 Increase 10/300; GE Healthcare) in buffer containing 25 mM MES (pH 6.0), 150 mM NaCl, and 0.05% (w/v) DDM. The peak fractions were pooled and concentrated to 10~50 μM for the nucleoside-binding assay.
The binding affinity between wild-type and mutant PfENT1 with nucleosides and GSK4 was measured using a Micro-Cal ITC200 (Malvern). All proteins were prepared in 25 mM MES (pH 6.0), 150 mM NaCl, and 0.05% (w/v) DDM. Nucleosides (5~10 mM) and GSK4 (100-200 μM) dissolved in the same buffer were titrated against 20–50 μM PfENT1 proteins at 25 °C. PEAQ-ITC analysis software (MicroCal) was employed to analyze the data. All titrations were repeated three times.

[1] = ITC, 25 °C, pH 6.0, mean ± SD (n = 3), Fig. 1a and text

T1 sequence (Q8IDM6 whole entry): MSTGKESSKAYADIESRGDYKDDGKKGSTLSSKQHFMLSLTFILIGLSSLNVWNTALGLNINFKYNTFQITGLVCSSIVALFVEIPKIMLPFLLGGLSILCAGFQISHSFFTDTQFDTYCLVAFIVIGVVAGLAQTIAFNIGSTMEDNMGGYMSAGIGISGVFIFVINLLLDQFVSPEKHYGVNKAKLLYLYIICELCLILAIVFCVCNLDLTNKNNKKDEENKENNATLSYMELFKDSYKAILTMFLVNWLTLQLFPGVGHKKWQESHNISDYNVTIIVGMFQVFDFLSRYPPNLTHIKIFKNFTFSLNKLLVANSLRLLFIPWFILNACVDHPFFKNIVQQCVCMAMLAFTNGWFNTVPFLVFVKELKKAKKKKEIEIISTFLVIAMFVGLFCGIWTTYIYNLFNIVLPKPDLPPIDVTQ
T2 sequence (Q8IDM6 whole entry): as above

Structure (SMILES) | remaining activity at 5000 µM (PfENT1) [%] | Uptake of [3H]-inosine (Percentage of PfENT1 WT) (PfENT1) | binding affinity (Kd) (PfENT1WT; [1]) | Uptake of [3H]-inosine (Percentage of PfENT1 WT) (PfENT1; listed as thymidine) | Kd (PfENT1WT; Kd, Mean and Mean ± SD, source data Figure 1a) [µM] | Kd (PfENT1WT; Kd, N=3 (individual experiments), source data Figure 1a) | Kd (PfENT1WT; binding affinity (Kd), ITC, 25 °C, pH 6.0, mean ± SD (n = 3), Fig. 1a and text)
O=c1ccn([C@@H]2O[C@H](CO)[C@@H](O)[C@H]2O)c(=O)[nH]1 [Uridine, uridine] | 81 | partially reduce inosine uptake | undetectable | – | – | – | –
O=c1[nH]cnc2nc[nH]c12 [Hypoxanthine, hypoxanthine] | 23 | partial inhibition | undetectable | – | – | – | –
Cc1cn([C@H]2C[C@H](O)[C@@H](CO)O2)c(=O)[nH]c1=O [Thymidine, thymidine] | 42 | 41% | undetectable | partially reduce inosine uptake | – | – | –
Nc1ncnc2c1ncn2[C@@H]1O[C@H](CO)[C@@H](O)[C@H]1O [Adenosine, adenosine] | 18 | relatively lower than that of inosine and guanosine | – | – | – | – | –
Nc1nc2c(ncn2[C@@H]2O[C@H](CO)[C@@H](O)[C@H]2O)c(=O)[nH]1 [Guanosine, guanosine] | 10 | abolished | – | – | 186 | 172 µM and 179 µM and 207 µM | ~186 µM and 186 µM
Nc1ccn([C@@H]2O[C@H](CO)[C@@H](O)[C@H]2O)c(=O)n1 [Cytidine, cytidine] | – | did not influence inosine uptake | undetectable | – | – | – | –
